Experimental data: patent US6258800A, “Prodrugs of benzofuranylethyl carbamate NK1 antagonists” (Warner-Lambert Company, priority 2000, dated 2001)
Where a name gives a salt, the structure may show the parent alone.

Columns and labels:
Aqueous solubility = type: physicochemical; conditions: water
[1] = Conversion of prodrug to parent compound 1 after IV dosing (plasma HPLC); type: in vivo; conditions: male Wistar rats; for metabolised at 24 h: rat, n=3, slow IV bolus about 5 mg/kg parent-equivalent, parent compound 1 in plasma up to 24 h; for conversion to parent compound 1 in vivo (in words): IV administration
From the text: Male Wistar rats weighing 244 to 390 g were used in the in vivo experiments. The day before the experiment, the rats were surgically prepared. Rats were anesthetized with ether, and the right jugular vein was cannulated for intravenous dosing and/or systemic sampling. The cannula was exteriorized at the nape of the rat between the shoulder blades. The animals were allowed to recover overnight from surgery and fasted with water ad libitum.
Dosing solutions of the prodrugs (5, 25, 18, 34, 20c, 20d, 20e, and 20f) were prepared separately in 5% dextrose in water (D5W). Compound 20a was dissolved in 5% ethanol in D5W whereas compound 29 was dissolved in 20% ethanol, 20% polyethylene glycol 400 in D5W. Animals were randomly assigned to groups of three. The prodrug solutions were administered intravenously as a slow bolus at about 5 mg/kg parent-equivalent or orally as a gastric gavage at about 15 mg/kg parent-equivalent (Table 1 on Page 10 contains PO data). The cannula was subsequently rinsed with 1 mL D5W. Systemic blood was sampled predose and at selected times up to 24 hours after dosing. Blood samples (0.5 mL) were collected on ice, heparinized, and immediately centrifuged; then plasma was harvested and stored at -20° C. until analysis by HPLC.
The plasma samples were analyzed by validated HPLC assay for the parent compound 1. Plasma (200 μL) was spiked with 18 μL of internal standard ([2-(1H-indol-3-yl)-1-methyl-1-(1-phenyl-ethylcarbamoyl)-ethyl]-carbimic acid 4-ethyl-benzyl ester; 2.5 μM) and 400 μL acetonitrile (ACN) to precipitate protein. The supernatant was transferred to a clean test tube and evaporated to dryness. The residue was reconstituted in 50:50 ACN:water and injected onto the HPLC.
Detailed bioconversion data often prodrugs is found in Table 1 below.

SMILES | solubility (Aqueous solubility; parent drug) [µg/mL] | metabolised at 24 h [1] [%] | conversion to parent compound 1 in vivo (in words) [1] | aqueous solubility (in words) (Aqueous solubility) | metabolised at 24 h ([1]; in vivo) [%]
C[C@H](NC(=O)[C@@](C)(Cc1c[nH]c2ccccc12)NC(=O)OCc1cc2ccccc2o1)c1ccccc1 [Compound 1, 2-benzofuranylmethyl [R-(R*,S*)]-[1-(1H-indol-3-ylmethyl)-1-methyl-2-oxo-2-[(1-phenylethyl)amino]ethyl]carbamate, reference compound] | < 1 |  |  |  | 
C[C@H](NC(=O)[C@@](C)(Cc1cn(P(=O)(O)O)c2ccccc12)NC(=O)OCc1cc2ccccc2o1)c1ccccc1 [Compound 5, {3-[2-(Benzofuran-2-ylmethoxycarbonylamino)-2-(1-phenyl-ethylcarbamoyl)propyl]-indol-1-yl}-phosphonic acid disodium salt] |  | 11.7 ± 0.84 |  |  | 
C[C@H](NC(=O)[C@@](C)(Cc1cn(C(=O)OCOC(=O)c2ccc(COP(=O)(O)O)cc2)c2ccccc12)NC(=O)OCc1cc2ccccc2o1)c1ccccc1 [Compound 18, 3-[2-(Benzofuran-2-ylmethoxycarbonylamino)-2-(1-phenyl-ethylcarbamoyl)propyl]-indol-1-carboxylic acid phosphonooxymethylbenzoyloxymethyl ester disodium salt] |  | 59.5 ± 21.3 | highest reconversion |  | 
C[C@H](NC(=O)[C@@](C)(Cc1cn(C(=O)OCOC(=O)c2ccc(CN(C)C)cc2)c2ccccc12)NC(=O)OCc1cc2ccccc2o1)c1ccccc1 [Compound 20a, 3-[2-(Benzofuran-2-ylmethoxycarbonylamino)-2-(1-phenyl-ethylcarbamoyl)-propyl]-indole-1-carboxylic acid 4-dimethylaminomethyl-benzoyloxymethyl ester monohydrochloride salt] |  | 86.9 ± 18.6 | higher conversion than the phosphate prodrugs | not water-soluble | 
C[C@H](NC(=O)[C@@](C)(Cc1cn(C(=O)OCOC(=O)c2ccc(CN3CCN(C)CC3)cc2)c2ccccc12)NC(=O)OCc1cc2ccccc2o1)c1ccccc1 [Compound 20c, 3-[2-(Benzofuran-2-ylmethoxycarbonylamino)-2-(1-phenyl-ethylcarbamoyl)-propyl]-indole-1-carboxylic acid 4-(4-methyl-piperazin-1-methyl)-benzoyloxymethyl ester dihydrochloride salt] |  | 68 ± 5.2 | comparable reconversion as (20a) |  | 
C[C@H](NC(=O)[C@@](C)(Cc1cn(C(=O)OCOC(=O)c2ccc(CN3CCN(CCO)CC3)cc2)c2ccccc12)NC(=O)OCc1cc2ccccc2o1)c1ccccc1 [Compound 20d, 3-[2-(Benzofuran-2-ylmethoxycarbonylamino)-2-(1-phenyl-ethylcarbamoyl)-propyl]-indole-1-carboxylic acid 4-[4-(2-hydroxy-ethyl)-piperazin-1-ylmethyl]-benzoyloxymethyl ester dihydrochloride salt] |  | 64.2 ± 14.3 | comparable reconversion as (20a) |  | 
C[C@H](NC(=O)[C@@](C)(Cc1cn(C(=O)OCOC(=O)c2ccc(CN3CCNCC3)cc2)c2ccccc12)NC(=O)OCc1cc2ccccc2o1)c1ccccc1 [Compound 20e, 3-[2-(Benzofuran-2-ylmethoxycarbonylamino)-2-(1-phenyl-ethylcarbamoyl)-propyl]-indole-1-carboxylic acid 4-piperazin-1-ylmethyl-benzoyloxymethyl ester dihydrochloride salt] |  | 88.5 ± 9.2 | comparable reconversion as (20a) |  | 
C[C@H](NC(=O)[C@@](C)(Cc1cn(C(=O)OCOC(=O)c2ccc(CN(C)CCN(C)C)cc2)c2ccccc12)NC(=O)OCc1cc2ccccc2o1)c1ccccc1 [Compound 20f, 3-[2-(Benzofuran-2-ylmethoxycarbonylamino)-2-(1-phenyl-ethylcarbamoyl)-propyl]-indole-1-carboxylic acid 4-{[(2-dimethylamino-ethyl)-methyl-amino]-methyl}-benzoyloxymethyl ester dihydrochloride salt] |  | 104 ± 38.2 | comparable reconversion as (20a) |  | 
C[C@H](NC(=O)[C@@](C)(Cc1cn(C(=O)c2ccccc2COP(=O)(O)O)c2ccccc12)NC(=O)OCc1cc2ccccc2o1)c1ccccc1 [Compound 25, {1-Methyl-1-(1-phenyl-ethylcarbamoyl)-2-[1-(2-phosphonooxymethyl-benzoyl)-1H-indol-3-yl]-ethyl}-carbamic acid benzofuran-2-ylmethyl ester disodium salt] |  | 19.9 ± 1.07 |  |  | 
Cc1cc(C)c(C(C)(C)CC(=O)n2cc(C[C@@](C)(NC(=O)OCc3cc4ccccc4o3)C(=O)N[C@@H](C)c3ccccc3)c3ccccc32)c(OP(=O)(O)O)c1 [Compound 34, [2-{1-[3-(2,4-Dimethyl-6-phosphonooxy-phenyl)-3-methylbutyryl]-1H-indol-3-yl}-1-methyl-1-(1-phenylethylcarbamoyl)ethyl]carbamic acid benzofuran-2-ylmethyl ester disodium salt] |  |  | lowest bioconversion in vivo |  | 9.35 ± 4.12
